SMILES strings stand for the structures.

The data set is described as follows: Metabolic stability in human liver microsomes assessed as parent compound remaining after 240 mins incubation by LC-MS/MS analysis. The data set is classed as ADME, Microsome. Conditions: read-out: Stability. A general note: Microsomes from liver hold many membrane-bound enzymes, among them those of drug oxidation.

With `CS(=O)(=O)N1CCC[C@H](NC(=O)[C@H](CCC2CCCCC2)NC(=O)c2ccc(CNC(=O)c3cnn(-c4ccccc4)c3N)cc2)C1`, the remaining at 4 h worked out at 44%.

As for `CS(=O)(=O)N1CCCC(NC(=O)[C@H](CCC2CCCCC2)NC(=O)c2ccc(CNC(=O)c3cnc4ccccn34)cc2)C1` (mixture of isomers) [SR-302], the remaining at 4 h was 44%.

These data come from ChEMBL document CHEMBL5053509, “Development of a Selective Dual Discoidin Domain Receptor (DDR)/p38 Kinase Chemical Probe” (J Med Chem, 2021).
